Measurements: patent US10194854B2, “Method for non-invasive monitoring of fluorescent tracer agent with background separation corrections” (MediBeacon Inc., priority 2017, dated 2019)

Assay: Absorption and emission spectra of MB-102 (FIG. 3)
Assay type: physicochemical
Source text: By way of illustrative example, FIG. 3 is a graph summarizing the absorption spectra for HbO2 and Hb, as well as the absorption and emission spectra of frequency spectra of MB-102, an exogenous fluorescent agent in one aspect. Emission spectra for a blue LED light source and a green LED light source are also shown superimposed over the other spectra of FIG. 3. In this aspect, the system 200 may include a blue LED as the first light source 218, and the excitatory wavelength for the system 200 may be the isosbestic wavelength of about 450 nm. […] However, at wavelengths above about 500 nm, the HbO2/Hb spectra are less steeply sloped, and a broader band light source including, but not limited to, an LED with a bandpass filter may suffice for use as a first light source 218.
In another aspect, the excitatory wave length may be selected to enhance the contrast in light absorbance between the exogenous fluorescent agent and the chromophores within the tissues of the patient 202. […] Without being limited to any particular theory, a higher proportion of light illuminating the tissue of the patient 202 at a wavelength of about 450 nm will be absorbed by the MB-102 relative to the HbO2 and Hb, thus enhancing the efficiency of absorption by the MB-102 and reducing the intensity of light at the excitatory wavelength needed to elicit a detectable fluorescence signal. […]

light absorption relative to the light absorption of the HbO2 and the Hb (at the isosbestic wavelength of 452 nm): more than three-fold higher | emission peak wavelength (emission spectrum): about 550 nm
SMILES: Nc1nc(C(=O)N[C@H](CO)C(=O)O)c(N)nc1C(=O)N[C@H](CO)C(=O)O [MB-102]
